Inhibition in vivo and inhibition data for 30 compounds are collected here from ChEMBL document CHEMBL1135099, “Synthesis and antinephritic activities of quinoline-3-carboxamides and related compounds” (2002).

The source made the active and inactive calls. No cut-off for these calls is given here.

Experiment [1] concerns Mus musculus. Nature of the experiment: Percent inhibition of proteinuria in mice, perorally dose of 32 mg/kg. In kind it is functional. Conditions: route oral.
Experiment [2] has as its system Mus musculus. The experiment in a line: Percent inhibition of proteinuria by compound dose of 100 mg/kg given perorally to murine in chronic graft-versus-host-disease test. Format: functional. Conditions: route oral.
Experiment [3] has as its system Mus musculus. Nature of the experiment: Percent inhibition of anti-DNA antibody was evaluated by ELISA technique as a measure of auto-immune disease after injection of compound dose of 0.1 mg/kg in murine. Format: functional.
Experiment [4] relates to Mus musculus. Nature of the experiment: Percent inhibition of anti-DNA antibody was evaluated by ELISA technique as a measure of auto-immune disease after injection of compound dose of 1 mg/kg in murine. Format: functional.
The test system of experiment [5] is Mus musculus. The experiment in a line: Percent inhibition of anti-DNA antibody was evaluated by ELISA technique as a measure of auto-immune disease after injection of compound dose of 10 mg/kg in murine. In kind it is functional.
Experiment [6] relates to Mus musculus. Nature of the experiment: Percent inhibition of proteinuria by compound dose of 1 mg/kg given perorally to murine in chronic graft-versus-host-disease test. Format: functional. Conditions: route oral.
The subject of experiment [7] is Mus musculus. Nature of the experiment: Percent inhibition of proteinuria by compound dose of 10 mg/kg given perorally to murine in chronic graft-versus-host-disease test. Format: functional. Conditions: route oral.
In experiment [8] the test system is Mus musculus. Nature of the experiment: Percent inhibition of proteinuria by compound dose of 0.1 mg/kg given perorally to murine in chronic graft-versus-host-disease test. In kind it is functional. Conditions: route oral.
The subject of experiment [9] is Mus musculus. The experiment in a line: Percent inhibition of anti-DNA antibody was evaluated by ELISA technique as a measure of auto-immune disease after injection of compound dose of 0.1 mg/kg in MRL/1 mice. In kind it is functional.
Experiment [10] has as its system Mus musculus. The experiment in a line: Percent inhibition of anti-DNA antibody was evaluated by ELISA technique as a measure of auto-immune disease after injection of compound dose of 0.32 mg/kg in MRL/1 mice. Format: functional.
Experiment [11] concerns Mus musculus. The experiment in a line: Percent inhibition of anti-DNA antibody was evaluated by ELISA technique as a measure of auto-immune disease after injection of compound dose of 1 mg/kg in MRL/1 mice. In kind it is functional.
Experiment [12] deals with Mus musculus. Nature of the experiment: Percent inhibition of anti-DNA antibody was evaluated by ELISA technique as a measure of auto-immune disease after injection of compound dose of 10 mg/kg in MRL/1 mice. Format: functional.
In experiment [13] the test system is Mus musculus. Nature of the experiment: Percent inhibition of anti-DNA antibody was evaluated by ELISA technique as a measure of auto-immune disease after injection of compound dose of 100 mg/kg in murine. Format: functional.
Experiment [14] concerns Mus musculus. The experiment in a line: Percent inhibition of anti-DNA antibody was evaluated by ELISA technique as a measure of auto-immune disease after injection of compound dose of 3.2 mg/kg in MRL/1 mice. In kind it is functional.
Experiment [15] has as its system Mus musculus. Nature of the experiment: Percent inhibition of proteinuria by compound dose of 0.32 mg/kg given perorally to MRL/1 mice. In kind it is functional. Conditions: route oral.
In experiment [16] the test system is Mus musculus. The experiment in a line: Percent inhibition of proteinuria by compound dose of 1 mg/kg given perorally to MRL/1 mice. Format: functional. Conditions: route oral.
In experiment [17] the test system is Mus musculus. Nature of the experiment: Percent inhibition of proteinuria by compound dose of 10 mg/kg given perorally to MRL/1 mice. Conditions: route oral. In kind it is functional.
In experiment [18] the test system is Mus musculus. The experiment in a line: Percent inhibition of proteinuria by compound dose of 3.2 mg/kg given perorally to MRL/1 mice. Format: functional. Conditions: route oral.
The subject of experiment [19] is Mus musculus. The experiment in a line: Percent inhibition of proteinuria by compound dose of 0.1 mg/kg given perorally to MRL/1 mice. Conditions: route oral. In kind it is functional.
In experiment [20] the test system is Mus musculus. The experiment in a line: Percent inhibition of anti-DNA antibody was evaluated by ELISA technique as a measure of auto-immune disease after injection of compound dose of 100 mg/kg in MRL/1 mice. Format: functional.
In experiment [21] the test system is Mus musculus. Nature of the experiment: Percent inhibition of anti-DNA antibody was evaluated by ELISA technique as a measure of auto-immune disease after injection of compound dose of 32 mg/kg in murine. Format: functional.
Experiment [22] has as its system Mus musculus. The experiment in a line: Percent inhibition of proteinuria by compound dose of 1 mg/kg given perorally to MRL/1 mice; Inactive. In kind it is functional, organism-based. More on the design: dose 1 mg/kg.
Experiment [23] concerns Mus musculus. The experiment in a line: Percent inhibition of proteinuria by compound dose of 100 mg/kg given perorally to MRL/1 mice. Format: functional. Conditions: route oral.
In experiment [24] the test system is Mus musculus. The experiment in a line: Percent inhibition of proteinuria by compound dose of 3.2 mg/kg given perorally to MRL/1 mice; Inactive. In kind it is functional, organism-based. More on the design: dose 3.2 mg/kg.
The subject of experiment [25] is Mus musculus. The experiment in a line: Percent inhibition of proteinuria by compound dose of 32 mg/kg given perorally to MRL/1 mice. Format: functional. Conditions: route oral.
Experiment [26] has as its system Mus musculus. The experiment in a line: Percent inhibition of anti-DNA antibody was evaluated by ELISA technique as a measure of auto-immune disease after injection of compound dose of 32 mg/kg in MRL/1 mice. Format: functional.

Take `CN(C(=O)c1c(O)c2cc(Oc3ccccc3)ccc2n(C)c1=O)c1ccccc1`: the inhibition in vivo at 32 mg/kg with Mus musculus [1] was determined as 26%.
`CSc1ccc2c(c1)c(O)c(C(=O)N(C)c1ccc(F)cc1)c(=O)n2C`: the inhibition in vivo at 32 mg/kg in the experiment with Mus musculus [1] is 100%.
Still for that read-out and setting: in the case of `CCSc1ccc2c(c1)c(O)c(C(=O)N(C)c1ccccc1)c(=O)n2C` it was 100%.
In the case of `CSc1ccc2c(c1)c(O)c(C(=O)N(C)c1ccc(C)cc1)c(=O)n2C`, the inhibition in vivo at 32 mg/kg with Mus musculus [1] is 100%.
`CSc1ccc2c(c1)c(O)c(C(=O)n1ccc3ccccc31)c(=O)n2C`: the inhibition in vivo at 100 mg/kg with Mus musculus [2] came out at 48%.
Consider `CSc1ccc2c(c1)c(O)c(S(=O)(=O)N(C)c1ccccc1)c(=O)n2C`, for which the inhibition in vivo at 32 mg/kg in the experiment on Mus musculus [1] worked out at 53%.
`C[C@]12C=CC(=O)C=C1CCC1[C@@H]2[C@@H](O)C[C@@]2(C)[C@H]1CC[C@]2(O)C(=O)CO` (single isomer, unassigned) [PREDNISOLONE]: the inhibition in vivo at 0.1 mg/kg in the experiment on Mus musculus [3] amounted to 39%; in the experiment with Mus musculus [8], 53%. In addition, the inhibition in vivo at 1 mg/kg was found to be 39% in the experiment with Mus musculus [4] and 75% with Mus musculus [6]. The inhibition in vivo at 10 mg/kg came out at 52% with Mus musculus [5] and 100% with Mus musculus [7].
As for `CSc1ccc2c(c1)c(O)c(C(=O)Nc1ccccc1)c(=O)n2C`, the inhibition in vivo at 32 mg/kg in the experiment on Mus musculus [1] is 24%.
With `COc1c(C(=O)N(C)c2ccccc2)c(=O)n(C)c2ccc(SC)cc12`, in the experiment on Mus musculus [1], the inhibition in vivo at 32 mg/kg is 94%.
Turning to `CSc1ccc2c(c1)c(S)c(C(=O)N(C)c1ccccc1)c(=O)n2C`, the inhibition in vivo at 32 mg/kg with Mus musculus [1] turned out to be 19%.
As to `CCn1c(=O)c(C(=O)N(C)c2ccccc2)c(O)c2cc(SC)ccc21`, in the experiment on Mus musculus [1], the inhibition in vivo at 32 mg/kg is 83%.
With `CSc1ccc2c(c1)c(O)c(C(=O)N(C)C1CCCCC1)c(=O)n2C`, the inhibition in vivo at 32 mg/kg in the experiment on Mus musculus [1] came to 43%.
`CSc1ccc2c(c1)c(O)c(C(=O)N(C)c1ccccc1)c(=O)n2C`: the inhibition in vivo at 0.1 mg/kg in the experiment on Mus musculus [9] stood at 49%; with Mus musculus [3] it was 41%; with Mus musculus [19] it was 100%; with Mus musculus [8] it was 66%. Moreover, the values for the inhibition in vivo at 0.32 mg/kg in the experiment on Mus musculus [10] and in the experiment with Mus musculus [15] were 69% and 100%, respectively. For the same compound, the inhibition in vivo at 1 mg/kg amounted to 76% in the experiment on Mus musculus [11], 50% with Mus musculus [4], 100% in the experiment with Mus musculus [16] and 82% in the experiment on Mus musculus [6]. Further, the inhibition in vivo at 10 mg/kg turned out to be 93% with Mus musculus [12], 88% with Mus musculus [5], 100% with Mus musculus [17] and 100% with Mus musculus [7]. Also, the inhibition in vivo at 100 mg/kg in the experiment on Mus musculus [13] amounted to 94%; in the experiment on Mus musculus [2] it was 100%. Besides, the inhibition in vivo at 3.2 mg/kg is 88% in the experiment with Mus musculus [14] and 100% in the experiment with Mus musculus [18]. For the same compound, in the experiment on Mus musculus [1], the inhibition in vivo at 32 mg/kg is 100%.
As for `CN(C(=O)c1c(O)c2cc(S(C)(=O)=O)ccc2n(C)c1=O)c1ccccc1`, in the experiment with Mus musculus [1], the inhibition in vivo at 32 mg/kg is 0%.
For `CN(C(=O)c1c(O)c2cc([S+](C)[O-])ccc2n(C)c1=O)c1ccccc1` (stereo not drawn), in the experiment with Mus musculus [1], the inhibition in vivo at 32 mg/kg came out at 100%.
For `CSc1ccc2c(c1)c(O)c(C(=O)C1(c3ccccc3)CC1)c(=O)n2C`, the inhibition in vivo at 100 mg/kg with Mus musculus [2] was 29%.
With `CSc1ccc2c(c1)c(N)c(C(=O)N(C)c1ccccc1)c(=O)n2C`, the inhibition in vivo at 32 mg/kg in the experiment on Mus musculus [1] came out at 22%.
Regarding `CSc1ccc2c(c1)c(O)c(S(=O)(=O)Cc1ccccc1)c(=O)n2C`, in the experiment with Mus musculus [2], the inhibition in vivo at 100 mg/kg was -49%.
Regarding `CSc1ccc2c(c1)c(O)c(C(=O)N(C)c1cccc(C(F)(F)F)c1)c(=O)n2C`, the inhibition in vivo at 32 mg/kg in the experiment with Mus musculus [1] worked out at 99%.
Turning to `CN(C(=O)c1c(O)c2cc(Sc3ccccc3)ccc2n(C)c1=O)c1ccccc1`, the inhibition in vivo at 32 mg/kg in the experiment with Mus musculus [1] turned out to be 100%.
Take `CSc1ccc2c(c1)c(O)c(C(=O)N(C)c1ccccc1)c(=O)n2Cc1ccccc1`: in the experiment with Mus musculus [1], the inhibition in vivo at 32 mg/kg is -66%.
Same read-out and setting: then `COc1ccc(N(C)C(=O)c2c(O)c3cc(SC)ccc3n(C)c2=O)cc1`, with 100%.
Consider `CN(C(=O)c1c(O)c2ccccc2n(C)c1=O)c1ccccc1` [ROQUINIMEX], for which, in the experiment on Mus musculus [11], the inhibition in vivo at 1 mg/kg was determined as 24%. Besides, the inhibition in vivo at 10 mg/kg in the experiment on Mus musculus [12] is 51%; in the experiment on Mus musculus [5], -19%; with Mus musculus [17], 60%; in the experiment with Mus musculus [7] it was 9%. The inhibition in vivo at 100 mg/kg with Mus musculus [20] stood at 76%; with Mus musculus [13], 37%; in the experiment on Mus musculus [23], 100%; in the experiment with Mus musculus [2], 98%. Moreover, the inhibition in vivo at 3.2 mg/kg with Mus musculus [14] is 35%. Besides, the inhibition in vivo at 32 mg/kg was found to be 36% in the experiment on Mus musculus [21], 100% in the experiment with Mus musculus [25], 86% with Mus musculus [1] and 52% in the experiment with Mus musculus [26]. Further, the inhibition result in the experiment on Mus musculus [22] and in the experiment with Mus musculus [24] was “inactive” in each case.
With `CSc1ccc2c(c1)c(O)c(C(=O)N(C)c1ccccn1)c(=O)n2C`, the inhibition in vivo at 32 mg/kg in the experiment on Mus musculus [1] came out at 65%.
Turning to `CNc1c(C(=O)N(C)c2ccccc2)c(=O)n(C)c2ccc(SC)cc12`, the inhibition in vivo at 32 mg/kg in the experiment on Mus musculus [1] came out at 83%.
Regarding `CSc1ccc2c(c1)c(O)c(C(=O)c1ccccc1)c(=O)n2C`, in the experiment on Mus musculus [2], the inhibition in vivo at 100 mg/kg worked out at 42%.
Regarding `COCn1c(=O)c(C(=O)N(C)c2ccccc2)c(O)c2cc(SC)ccc21`, the inhibition in vivo at 32 mg/kg with Mus musculus [1] is 78%.
Still for that read-out and setting: in the case of `CSc1ccc2nc(O)c(C(=O)N(C)c3ccccc3)c(O)c2c1` it was 88%; in that of `CSc1ccc2c(c1)c(Cl)c(C(=O)N(C)c1ccccc1)c(=O)n2C`, -1%; in that of `CCN(C(=O)c1c(O)c2cc(SC)ccc2n(C)c1=O)c1ccccc1`, 89%.
